This test relates to HCV 1b genotype replicon. The test is described as follows: HCV replicon assay (qRT-PCR or luciferase), genotype 1b. The class given is cell-based. The settings on record: Hepatitis C virus, read-out: Genotype-1b replicon EC50 Range. The text has this: HCV replicon cell lines (kindly provided by R. Bartenschlager) isolated from colonies as described by Lohman et al. (Lohman et al. (1999) Science 285: 110-113, expressly incorporated by reference in its entirety) and used for all experiments. The HCV replicon has the nucleic acid sequence set forth in EMBL Accession No.: AJ242651, the coding sequence of which is from nucleotides 1801 to 8406.
The coding sequence of the published HCV replicon was synthesized and subsequently assembled in a modified plasmid pBR322 (Promega, Madison, Wis.) using standard molecular biology techniques. One replicon cell line (“SGR 11-7”) stably expresses HCV replicon RNA which consists of (i) the HCV 5′UTR fused to the first 12 amino acids of the capsid protein, (ii) the neomycin phosphotransferase gene (neo), (iii) the IRES from encephalomyocarditis virus (EMCV), and (iv) HCV NS2 to NS5B genes and the HCV 3′UTR. […]
EC50 values of single agent compounds and combinations were determined by HCV RNA detection using quantitative RT-PCR, according to the manufacturer's instructions, with a TaqMan® One-Step RT-PCR Master Mix Reagents Kit (Cat# AB 4309169, Applied Biosystems) on an ABI Model 7500 thermocycler. The TaqMan primers used for detecting and quantifying HCV RNA were obtained from Integrated DNA Technologies. HCV RNA was normalized to GAPDH RNA levels in drug-treated cells, which is detected and quantified using the Human GAPDH Endogenous Control Mix (Applied Biosystems, AB 4310884E). […] Chemical agent cytotoxicity is evaluated using an MTS assay according to the manufacturer's directions (Promega). […]
A general note: In antiviral work, replicon cells carry a viral genome segment that copies itself.
The term EC50 denotes the concentration needed to bring the measured effect to its halfway point. In the case of `COC(=O)N[C@@H](C(=O)N1CCC[C@H]1c1nc(C2=CCC(c3ccc(-c4cnc([C@@H]5CCCN5C(=O)[C@H](NC(=O)OC)c5ccccc5)[nH]4)cc3)CC2)c[nH]1)c1ccccc1` (stereo partly drawn) [Example 1-b], the concentration giving a half-maximal response (EC50) is less than 1 nM.

With `COC(=O)N[C@@H](C(=O)N1CCC[C@H]1c1ncc(C#Cc2ccc(-c3cnc([C@@H]4CCCN4C(=O)[C@H](NC(=O)OC)c4ccccc4)[nH]3)cc2)[nH]1)c1ccccc1` [Example 299], the half-maximal effective concentration (EC50) was less than 1 nM.

Consider `COC(=O)N[C@@H](C(=O)N1CCC[C@H]1c1ncc(CCc2ccc(-c3cnc([C@@H]4CCCN4C(=O)[C@H](NC(=O)OC)c4ccccc4)[nH]3)cc2)[nH]1)c1ccccc1` [Example 361], for which the EC50 was less than 1 nM.
